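Following 48 hours of exposure in 96-well plates, responses at five concentrations were used to interpolate endpoints linearly. At the GI50, growth is halved.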 Activity calls are given as the source filed them. No stated cut-off is given here; in the data, active = GI50 up to about 1.1 µM and inactive = higher. Residues, ends and D or L forms follow the SMILES beside them.
How the values were obtained:
Experiment in all cases: growth of human tumour cells (NCI), 48 h
NCI-H522 = tested on: NCI-H522
HOP-62 = tested on: HOP-62
MDA-N = tested on: MDA-N
SR = tested on: SR
KM12 = tested on: KM12
T47D = tested on: T47D
EKVX = tested on: EKVX
TK-10 = tested on: TK-10
HCT-116 = tested on: HCT-116
ACHN = tested on: ACHN
LOX IMVI = tested on: LOX IMVI
K562 = tested on: K562
NCI-H460 = tested on: NCI-H460
Malme-3M = tested on: Malme-3M
PC-3 = tested on: PC-3
SF-295 = tested on: SF-295
SK-MEL-2 = tested on: SK-MEL-2
MDA-MB-435 = tested on: MDA-MB-435
MCF7 = tested on: MCF7

| SMILES | GI50 (NCI-H522) | GI50 (HOP-62) | GI50 (MDA-N) | GI50 (SR) | GI50 (KM12) | GI50 (T47D) | GI50 (EKVX) | GI50 (TK-10) | GI50 (HCT-116) | GI50 (ACHN) | GI50 (LOX IMVI) | GI50 (K562) | GI50 (NCI-H460) | GI50 (Malme-3M) | GI50 (PC-3) | GI50 (SF-295) | GI50 (SK-MEL-2) | GI50 (MDA-MB-435) | GI50 (MCF7) |
| --- | --- | --- | --- | --- | --- | --- | --- | --- | --- | --- | --- | --- | --- | --- | --- | --- | --- | --- | --- |
| O=C(O)COc1c(Cl)cc(Cl)c2cccnc12 | > 100 µM (inactive) | > 100 µM (inactive) | > 100 µM (inactive) | > 100 µM (inactive) | > 100 µM (inactive) | > 100 µM (inactive) | > 100 µM (inactive) | > 100 µM (inactive) | > 100 µM (inactive) | > 100 µM (inactive) | > 100 µM (inactive) | > 100 µM (inactive) | > 100 µM (inactive) | > 100 µM (inactive) | > 100 µM (inactive) | > 100 µM (inactive) | > 100 µM (inactive) | > 100 µM (inactive) | > 100 µM (inactive) |
| C(CCc1nnc2c(n1)CCCC2)Cc1nnc2c(n1)CCCC2 | > 100 µM (inactive) | > 100 µM (inactive) | 88.3 µM (inactive) | 88.7 µM (inactive) | > 100 µM (inactive) | > 100 µM (inactive) | > 100 µM (inactive) | > 100 µM (inactive) | > 100 µM (inactive) | > 100 µM (inactive) | > 100 µM (inactive) | > 100 µM (inactive) | > 100 µM (inactive) | > 100 µM (inactive) | 85.7 µM (inactive) | > 100 µM (inactive) | > 100 µM (inactive) | 88.7 µM (inactive) | > 100 µM (inactive) |
| COc1ccc(-c2cc(-c3ccccc3)nc(N)n2)c(O)c1 | 2.78 µM (inactive) | > 49.5 µM (inactive) | 4.55 µM (inactive) | 4.3 µM (inactive) | 4.67 µM (inactive) | 5.86 µM (inactive) | > 24.9 µM (inactive) | > 100 µM (inactive) | > 100 µM (inactive) | 21.1 µM (inactive) | 6.78 µM (inactive) | 2.19 µM (inactive) | 5.04 µM (inactive) | > 100 µM (inactive) | 6.68 µM (inactive) | > 86.1 µM (inactive) | 7.08 µM (inactive) | 3.56 µM (inactive) | 0.984 µM (active) |
| COC(C)(C)[C@@H](O)[C@H]1C[C@H](C)[C@@]2(CC[C@]3(C)[C@@H]2CC[C@@H]2[C@@]4(C)CC[C@@H](OC(C)=O)C(C)(C)[C@@H]4C[C@@H](OC4OC(COC(C)=O)C(O)C(O)C4O)[C@]23C)O1 (some centres undefined) | 4.04 µM (inactive) | 12.3 µM (inactive) | 5.43 µM (inactive) | 2.52 µM (inactive) | 1.79 µM (inactive) | 4.14 µM (inactive) | 5.74 µM (inactive) | 12.2 µM (inactive) | 3.25 µM (inactive) | 5.86 µM (inactive) | 3.9 µM (inactive) | 3.79 µM (inactive) | 4.37 µM (inactive) | 10.5 µM (inactive) | 2.63 µM (inactive) | 4.51 µM (inactive) | 4.75 µM (inactive) | 3.29 µM (inactive) | 2.86 µM (inactive) |
| COC1=CC(=O)c2nc3ccccc3c3ccnc1c23 | 2.22 µM (inactive) | 5.74 µM (inactive) | 0.448 µM (active) | 1.56 µM (inactive) | 4.04 µM (inactive) | 5.71 µM (inactive) | 12.6 µM (inactive) | 19.3 µM (inactive) | 1.2 µM (inactive) | 3.42 µM (inactive) | 0.565 µM (active) | 3.37 µM (inactive) | 0.434 µM (active) | 1.58 µM (inactive) | 1.81 µM (inactive) | 4.48 µM (inactive) | 5.64 µM (inactive) | 0.187 µM (active) | 1.95 µM (inactive) |
| CCCCCCCCCCCCCCCCCCNc1nc(=O)n(C2CC(O)C(COP(=O)(O)OCC3OC(n4ccc(N)nc4=O)C(O)C3O)O2)cc1F (centres undefined) | 3.8 µM (inactive) | 18.7 µM (inactive) | > 100 µM (inactive) | > 100 µM (inactive) | > 100 µM (inactive) | 28.7 µM (inactive) | > 100 µM (inactive) | > 100 µM (inactive) | 9.35 µM (inactive) | 18.7 µM (inactive) | 10.2 µM (inactive) | > 100 µM (inactive) | 4.5 µM (inactive) | 24.5 µM (inactive) | 28.6 µM (inactive) | > 100 µM (inactive) | > 100 µM (inactive) | > 100 µM (inactive) | 6.7 µM (inactive) |
| C(=C\c1nccs1)/c1cccc(/C=C/c2nccs2)n1 | > 50 µM (inactive) | > 50 µM (inactive) | > 50 µM (inactive) | > 50 µM (inactive) | > 50 µM (inactive) | 31.2 µM (inactive) | 49 µM (inactive) | > 50 µM (inactive) | > 50 µM (inactive) | > 50 µM (inactive) | > 50 µM (inactive) | > 50 µM (inactive) | > 50 µM (inactive) | > 50 µM (inactive) | > 50 µM (inactive) | > 50 µM (inactive) | > 50 µM (inactive) | > 50 µM (inactive) | 18.8 µM (inactive) |
| Cc1ccc(S(=O)(=O)N/N=C/C2(c3ccccc3)c3ccccc3-c3ccccc32)cc1 | 13 µM (inactive) | 17.7 µM (inactive) | 4.28 µM (inactive) | 7.45 µM (inactive) | 7.76 µM (inactive) | 2.09 µM (inactive) | 8.95 µM (inactive) | 20.9 µM (inactive) | 7.08 µM (inactive) | 4.94 µM (inactive) | 12.7 µM (inactive) | 4.56 µM (inactive) | 5.06 µM (inactive) | 5.42 µM (inactive) | 3.38 µM (inactive) | 3.21 µM (inactive) | 12.2 µM (inactive) | 11 µM (inactive) | 6.98 µM (inactive) |
| COc1ccc2c3c1OC1C34CCN(C)C(C2)C4=CC(I)C1(OC)OC (centres undefined) | 5.27 µM (inactive) | 8.77 µM (inactive) | 6.14 µM (inactive) | 2.36 µM (inactive) | 14.4 µM (inactive) | 16.3 µM (inactive) | 14.4 µM (inactive) | 14.7 µM (inactive) | 3.93 µM (inactive) | 11.3 µM (inactive) | 7.33 µM (inactive) | 2.77 µM (inactive) | 13.5 µM (inactive) | 7.21 µM (inactive) | 10.2 µM (inactive) | 41.5 µM (inactive) | 15.6 µM (inactive) | 4.12 µM (inactive) | 5.08 µM (inactive) |
| CC1(C)OC[C@@H](O)[C@H](C#N)CO1 | > 100 µM (inactive) | > 100 µM (inactive) | > 100 µM (inactive) | > 100 µM (inactive) | > 100 µM (inactive) | > 100 µM (inactive) | > 100 µM (inactive) | > 100 µM (inactive) | > 100 µM (inactive) | > 100 µM (inactive) | > 100 µM (inactive) | > 100 µM (inactive) | > 100 µM (inactive) | > 100 µM (inactive) | > 100 µM (inactive) | > 100 µM (inactive) | > 100 µM (inactive) | > 100 µM (inactive) | > 100 µM (inactive) |
| Fc1cccc2nc(-c3ccccc3)cc(OCc3ccccc3)c12 | 71.8 µM (inactive) | > 100 µM (inactive) | > 100 µM (inactive) | > 100 µM (inactive) | > 100 µM (inactive) | 89.3 µM (inactive) | 20.8 µM (inactive) | > 100 µM (inactive) | > 100 µM (inactive) | > 100 µM (inactive) | > 100 µM (inactive) | > 100 µM (inactive) | > 100 µM (inactive) | > 100 µM (inactive) | > 100 µM (inactive) | > 100 µM (inactive) | > 100 µM (inactive) | > 100 µM (inactive) | 59.7 µM (inactive) |
| CC(C)(C)c1ccc(S(=O)(=O)N2C(c3cccc(C4CC[C@@H](C(=O)O)N4S(=O)(=O)c4ccc(C(C)(C)C)cc4)c3)CC[C@H]2C(=O)O)cc1 (some centres undefined) | 38.7 µM (inactive) | 98.4 µM (inactive) | 55.2 µM (inactive) | 33.1 µM (inactive) | 53.8 µM (inactive) | 29.9 µM (inactive) | 30.1 µM (inactive) | 65.5 µM (inactive) | 38.1 µM (inactive) | 57.4 µM (inactive) | 79.4 µM (inactive) | 37.5 µM (inactive) | 47.9 µM (inactive) | 87.1 µM (inactive) | 32.7 µM (inactive) | 45.8 µM (inactive) | 30.1 µM (inactive) | 54.7 µM (inactive) | 44 µM (inactive) |
| CCC(C)C(NC(=O)C(CC(C)C)NC(=O)CNC(=O)C(NC(=O)C1CCCN1C(=O)C(CC(C)C)NC(=O)C(N)Cc1ccccc1)C(C)CC)C(=O)NC(CC(C)C)C(N)=O (centres undefined) (H-FLPIGLIL-NH2; configuration not given here) | > 75 µM (inactive) | > 75 µM (inactive) | > 75 µM (inactive) | > 75 µM (inactive) | > 75 µM (inactive) | > 75 µM (inactive) | > 75 µM (inactive) | > 75 µM (inactive) | > 75 µM (inactive) | > 75 µM (inactive) | > 75 µM (inactive) | > 75 µM (inactive) | – | > 75 µM (inactive) | > 75 µM (inactive) | > 75 µM (inactive) | > 75 µM (inactive) | > 75 µM (inactive) | > 75 µM (inactive) |
| O=C([O-])Cc1ccccc1.[Na+] [SODIUM PHENYLACETATE] | 618 µM (inactive) | 200 µM (inactive) | 10.6 µM (inactive) | 200 µM (inactive) | 773 µM (inactive) | 774 µM (inactive) | > 2000 µM (inactive) | 1130 µM (inactive) | – | 1180 µM (inactive) | 1160 µM (inactive) | 284 µM (inactive) | 342 µM (inactive) | 706 µM (inactive) | > 2000 µM (inactive) | 843 µM (inactive) | > 2000 µM (inactive) | 1000 µM (inactive) | > 2000 µM (inactive) |
